Assay results reported in patent publication US7906486B2, “Method of treating or preventing tissue deterioration, injury or damage due to disease of mucosa” (SciClone Pharmaceuticals, Inc., priority 2007, dated 2011).

Assays:
[1] = system: oral mucositis induced by acute radiation (40 Gy, left buccal cheek pouch); test: Oral mucositis induced by acute radiation in hamsters, mucositis scoring (Example 1, SCI-01); format: in vivo, Syrian Golden Hamsters; design: key to peak mean mucositis score: 0 = normal, 5 = severe ulceration; settings: for Days <3: animal days with mucositis score below three; for % Days >=3 / Days >=3: animal days with mucositis score of three or more; for Chi Sq v control: days with score >=3
Source text: The acute radiation model in hamsters has proven to be an accurate, efficient and cost-effective technique to provide a preliminary evaluation of anti-mucositis compounds. The course of mucositis in this model is well defined and results in peak scores approximately 14-16 Days following radiation. The acute model has little systemic toxicity, resulting in few hamster deaths, thus permitting the use of smaller groups (N=7-8) for initial efficacy studies. It has also been used to study specific mechanistic elements in the pathogenesis of mucositis. Molecules that show efficacy in the acute radiation model may be further evaluated in the more complex models of fractionated radiation, chemotherapy, or concomitant therapy.
In this study, an acute radiation dose of 40 Gy on day 0 was administered. Clinically significant mucositis was observed on days 12 through 28.
Thirty-two (32) Syrian Golden Hamsters were given an acute radiation dose of 40 Gy directed to their left buccal cheek pouch on day 0. Test materials were given by sub-cutaneous injection once daily. Dosing began one day before radiation (day −1) and continued until day 16. Mucositis was evaluated clinically starting on day 6, and continuing on alternate days until day 28.
The grade of mucositis was scored, beginning day 6, and for every second day thereafter, through and including day 28. The effect on mucositis of each drug treatment compared to placebo was assessed according to the following parameters:
The difference in the number of days hamsters in each group have ulcerative (score ≧3) mucositis.
On each evaluation day, the number of animals with a blinded mucositis score of 3 in each drug treatment group was compared to the control group. Differences were compared on a cumulative basis and statistical significance was determined by chi-square analysis. Efficacy, in this analysis, is defined by a significant reduction in the number of days that a group of animals had ulcerations (scores 3) when compared to the control group.
For each evaluation day the scores of the control group were compared to those of the treated groups using non-parametric rank sum analysis. Treatment success was considered as a statistically significant lowering of scores in the treated group on 2 or more days from day 6 to day 28.
Thirty-two Syrian Golden Hamsters were divided into four (4) groups of eight (8) animals each. All animals received a single dose of acute radiation of 40 Gy directed to their left buccal cheek pouch on day 0. This was accomplished by anesthetizing the animals and everting the left buccal pouch, while protecting the rest of the animals with a lead shield. Test materials were given by sub-cutaneous injection once daily as detailed in Table 1. Mucositis was evaluated clinically starting on Day 6, and continuing on alternate days until day 28.
Mucositis was induced using a standardized acute radiation protocol. A single dose of radiation (40 Gy/dose) was administered to all animals on day 0. Radiation was generated with a 160 kilovolt potential (15-ma) source at a focal distance of 30 cm, hardened with a 0.35 mm Cu filtration system. Irradiation targeted the left buccal pouch mucosa at a rate of 3.2 Gy/minute. Prior to irradiation, animals were anesthetized with an intraperitoneal injection of Ketamine (160 mg/kg) and Xylazine (8 mg/kg). The left buccal pouch was everted, fixed and isolated using a lead shield to protect all other parts of the hamster's body.
The mucositis score, weight change and survival were measured throughout the study as described above. For the evaluation of mucositis, the animals were anesthetized with an inhalation anesthetic, and the left pouch everted. Mucositis was scored visually by comparison to a validated photographic scale, ranging from 0 for normal, to 5 for severe ulceration (clinical scoring). In descriptive terms, this scale is defined as follows: […]

[2] = system: immunization with sheep red blood cells; settings: in vivo; cited from earlier work

For N[C@H](CCC(=O)N[C@@H](Cc1c[nH]c2ccccc12)C(=O)O)C(=O)O [SCV-07, γ-D-glutamyl-L-tryptophan], the “day of peak mean mucositis score” value ([1]; 1 ug/kg from day -1 to 16) was 16, the “peak mean mucositis score” value ([1]; 1 ug/kg from day -1 to 16) was 3.8 and the “improvement in daily mucositis scores relative to saline controls (Mann-Whitney rank sum)” value ([1]; 1 ug/kg on days -1 to 16, any day of the study) was “did not show any statistically significant improvement on any day”. The “day of peak mean mucositis score” value ([1]; 10 ug/kg from day -1 to 16) was 16, the “peak mean mucositis score” value ([1]; 10 ug/kg from day -1 to 16) was 3.7 and the “day of peak mean mucositis score” value ([1]; 100 ug/kg from day -1 to 16) was 18. For the same molecule, the “peak mean mucositis score” value ([1]; 100 ug/kg from day -1 to 16) was 3.4, the “Days <3” value ([1]; 1 ug/kg sc Days -1 to 16) was 102 and the “Days <3” value ([1]; 10 ug/kg sc Days -1 to 16) was 120. For the same molecule, the “Days <3” value ([1]; 100 ug/kg sc Days -1 to 16) was 124, the “% Days >=3” value ([1]; 1 ug/kg sc Days -1 to 16) was 46.9% and the “Days >=3” value ([1]; 1 ug/kg sc Days -1 to 16) was 90. The “% Days >=3” value ([1]; 10 ug/kg sc Days -1 to 16) was 37.5%, the “Days >=3” value ([1]; 10 ug/kg sc Days -1 to 16) was 72 and the “% Days >=3” value ([1]; 100 ug/kg sc Days -1 to 16) was 35.4%. For the same molecule, the “Days >=3” value ([1]; 100 ug/kg sc Days -1 to 16) was 68, the “Chi Sq v control” value ([1]; 1 ug/kg sc Days -1 to 16) was 0.0105 and the “Chi Sq v control” value ([1]; 10 ug/kg sc Days -1 to 16) was 3.0860. The “Chi Sq v control” value ([1]; 100 ug/kg sc Days -1 to 16) was 4.7420 and the “immunostimulatory effect in a model of immunization with sheep red blood cells” value [2] was “strong immunostimulatory effect”.
